One assay has as its target human JAK1 (Homo sapiens, UniProt P23458). Nature of the assay: In vitro JAK kinase assay (HTRF, Example A). The note with it: 1 mM ATP. It counts as biochemical. (TR-FRET usually uses a lanthanide donor and a delayed reading to cut background.)
Another assay deals with human JAK2 (Homo sapiens (Human), UniProt O60674). In words: In vitro JAK kinase assay (HTRF, Example A). The note with it: JAK2/JAK1 IC50 ratio, 1 mM ATP. It is filed as biochemical.

This is an account of results in patent publication US11957661B2, “JAK1 pathway inhibitors for the treatment of vitiligo” (Incyte Corporation, priority 2020, dated 2024).

human JAK2, sequence (O60674 828-1132): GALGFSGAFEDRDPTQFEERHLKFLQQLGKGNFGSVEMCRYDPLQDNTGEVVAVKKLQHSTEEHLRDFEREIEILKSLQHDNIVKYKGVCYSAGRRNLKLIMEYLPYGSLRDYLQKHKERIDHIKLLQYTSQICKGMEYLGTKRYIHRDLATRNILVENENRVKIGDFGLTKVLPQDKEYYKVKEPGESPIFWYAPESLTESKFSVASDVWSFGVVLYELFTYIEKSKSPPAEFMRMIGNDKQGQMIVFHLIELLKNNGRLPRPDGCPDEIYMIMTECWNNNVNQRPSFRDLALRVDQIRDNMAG
Procedure for human JAK1: (§1) The catalytic activity of JAK1, JAK2 or JAK3 was assayed by measuring the phosphorylation of a biotinylated peptide. The phosphorylated peptide was detected by homogenous time resolved fluorescence (HTRF). […] Reactions were carried out at room temperature for 1 hour and then stopped with 20 μL 45 mM EDTA, 300 nM SA-APC, 6 nM Eu-Py20 in assay buffer (Perkin Elmer, Boston, MA). Binding to the Europium labeled antibody took place for 40 minutes and HTRF signal was measured on a Fusion plate reader (Perkin Elmer, Boston, MA).
Procedure for human JAK2: as §1

On to `N#CC[C@]1(n2cc(-c3ncnc4[nH]ccc34)cn2)C[C@H](N2CCC(Oc3cc(CN4CCC[C@@H]4CO)cc(C(F)(F)F)n3)CC2)C1` [Compound 13, {trans-3-(4-{[4-{[(2R)-2-(hydroxymethyl)pyrrolidin-1-yl]methyl}-6-(trifluoromethyl)pyridin-2-yl]oxy}piperidin-1-yl)-1-[4-(7H-pyrrolo[2,3-d]pyrimidin-4-yl)-1H-pyrazol-1-yl]cyclobutyl}acetonitrile], for which the IC50 (usually the point on the concentration scale where inhibition reaches its midpoint) at human JAK1 was below 10 nM. Besides, the JAK2/JAK1 on human JAK2 is reported as above 10.

With `N#CCC1(n2cc(-c3ncnc4[nH]ccc34)cn2)CN(C2CCN(C(=O)Nc3ccc(F)cc3C(F)(F)F)CC2)C1` [Compound 2, 4-{3-(Cyanomethyl)-3-[4-(7H-pyrrolo[2,3-d]pyrimidin-4-yl)-1H-pyrazol-1-yl]azetidin-1-yl}-N-[4-fluoro-2-(trifluoromethyl)phenyl]pipe-ridine-1-carboxamide], the concentration for half-maximal inhibition (IC50) on human JAK1 was below 10 nM. In addition, the JAK2/JAK1 at human JAK2 is reported as above 10.

Compound `C[C@H](O)CNCc1cc(OC2CCN([C@H]3C[C@](CC#N)(n4cc(-c5ncnc6[nH]ccc56)cn4)C3)CC2)nc(C(F)(F)F)c1` [Compound 25, {trans-3-(4-{[4-({[(2S)-2-hydroxypropyl]amino}meth-yl)-6-(trifluoromethyl)pyridin-2-yl]oxy}piperidin-1-yl)-1-[4-(7H-pyrrolo[2,3-d]pyrimidin-4-yl)-1H-pyrazol-1-yl]cyclobutyl}acetonitrile] gave an IC50 on human JAK1 below 10 nM. The JAK2/JAK1 at human JAK2 was above 10.

Compound `N#CCC1(n2cc(-c3ncnc4[nH]ccc34)cn2)CN([C@H]2CC[C@@H](Oc3cc(CCO)nc(C(F)(F)F)n3)CC2)C1` [Compound 18, {1-(cis-4-{[6-(2-hydroxyethyl)-2-(trifluoromethyl)pyrimidin-4-yl]oxy}cyclohexyl)-3-[4-(7H-pyrrolo[2,3-d]pyrimidin-4-yl)-1H-pyrazol-1-yl]azetidin-3-yl}acetonitrile] showed an IC50 against human JAK1 below 10 nM. Besides, at human JAK2, the JAK2/JAK1 is given as above 10.

Regarding `N#CC[C@]1(n2cc(-c3ncnc4[nH]ccc34)cn2)C[C@H](N2CCC(Oc3cc(CN4CCC[C@H]4CO)cc(C(F)(F)F)n3)CC2)C1` [Compound 12, {trans-3-(4-{[4-{[(2S)-2-(hydroxymethyl)pyrrolidin-1-yl]methyl}-6-(trifluoromethyl)pyridin-2-yl]oxy}piperidin-1-yl)-1-[4-(7H-pyrrolo[2,3-d]pyrimidin-4-yl)-1H-pyrazol-1-yl]cyclobutyl}acetonitrile], at human JAK1, the IC50 is below 10 nM. Moreover, the JAK2/JAK1 on human JAK2 is reported as above 10.

`CC(C)(O)c1cc(O[C@H]2CC[C@@H](N3CC(CC#N)(n4cc(-c5ncnc6[nH]ccc56)cn4)C3)CC2)nc(C(F)(F)F)c1` [Compound 20, {1-(cis-4-{[4-(1-hydroxy-1-methylethyl)-6-(trifluoromethyl)pyridin-2-yl]oxy}cyclohexyl)-3-[4-(7H-pyrrolo[2,3-d]pyrimidin-4-yl)-1H-pyrazol-1-yl]azetidin-3-yl}acetonitrile] returned an IC50 on human JAK1 below 10 nM. Further, the JAK2/JAK1 at human JAK2 is above 10.

Compound `N#CCC1(n2cc(-c3ncnc4[nH]ccc34)cn2)CN(C2CCN(C(=O)c3ccnc(C(F)(F)F)c3F)CC2)C1` [Compound 4, {1-{1-[3-Fluoro-2-(trifluoromethyl)isonicotinoyl]piperidin-4-yl}-3-[4-(7H-pyrrolo[2,3-d]pyrimidin-4-yl)-1H-pyrazol-1-yl]azetidin-3-yl}acetonitrile] yielded an IC50 on human JAK1 below 10 nM. For the same compound, the JAK2/JAK1 at human JAK2 was above 10.

`N#CCC1(n2cc(-c3ncnc4[nH]ccc34)cn2)CN([C@H]2CC[C@@H](Oc3cc(CN4CC[C@H](O)C4)cc(C(F)(F)F)n3)CC2)C1` [Compound 22, {1-(cis-4-{[4-{[(3S)-3-hydroxypyrrolidin-1-yl]methyl}-6-(trifluoromethyl)pyridin-2-yl]oxy}cyclohexyl)-3-[4-(7H-pyrrolo[2,3-d]pyrimidin-4-yl)-1H-pyrazol-1-yl]azetidin-3-yl}acetonitrile] had an IC50 against human JAK1 below 10 nM. Also, at human JAK2, the JAK2/JAK1 is reported as above 10.

Compound `C[C@@H](O)c1nc2cnc3ccsc3c2n1[C@H]1CC[C@H](CC#N)OC1` [Compound 5, ((2R,5S)-5-{2-[(1R)-1-hydroxyethyl]-1H-imidazo[4,5-d]thieno[3,2-b]pyridin-1-yl}tetrahydro-2H-pyran-2-yl)acetonitrile] yielded an IC50 against human JAK1 below 100 nM. At human JAK2, the JAK2/JAK1 is given as above 10.

As for `N#CCC(CN1CCN(C(=O)c2ccc(C#N)cc2F)CC1)n1cc(-c2ncnc3[nH]ccc23)cn1` (stereo not drawn) [Compound 8, 4-[(4-{3-cyano-2-[4-(7H-pyrrolo[2,3-d]pyrimidin-4-yl)-1H-pyrazol-1-yl]propyl}piperazin-1-yl)carbonyl]-3-fluorobenzonitrile], the IC50 against human JAK1 is below 10 nM. Besides, on human JAK2, the JAK2/JAK1 is listed as above 10.

As to `C[C@@H](CO)NCc1cc(OC2CCN([C@H]3C[C@](CC#N)(n4cc(-c5ncnc6[nH]ccc56)cn4)C3)CC2)nc(C(F)(F)F)c1` [Compound 23, {trans-3-(4-{[4-({[(1S)-2-hydroxy-1-methylethyl]amino}methyl)-6-(trifluoromethyl)pyridin-2-yl]oxy}piperidin-1-yl)-1-[4-(7H-pyrrolo[2,3-d]pyrimidin-4-yl)-1H-pyrazol-1-yl]cyclobutyl}acetonitrile], the IC50 against human JAK1 was below 10 nM. For the same compound, the JAK2/JAK1 on human JAK2 is reported as above 10.

`N#CC[C@]1(n2cc(-c3ncnc4[nH]ccc34)cn2)C[C@H](N2CCC(Oc3cc(CN4CC(O)C4)cc(C(F)(F)F)n3)CC2)C1` [Compound 11, {trans-3-(4-{[4-[(3-hydroxyazetidin-1-yl)methyl]-6-(trifluoromethyl)pyridin-2-yl]oxy}piperidin-1-yl)-1-[4-(7H-pyrrolo[2,3-d]pyrimidin-4-yl)-1H-pyrazol-1-yl]cyclobutyl}acetonitrile] gave an IC50 on human JAK1 below 10 nM. The JAK2/JAK1 at human JAK2 was above 10.

As for `C[C@@H](O)CNCc1cc(OC2CCN([C@H]3C[C@](CC#N)(n4cc(-c5ncnc6[nH]ccc56)cn4)C3)CC2)nc(C(F)(F)F)c1` [Compound 24, {trans-3-(4-{[4-({[(2R)-2-hydroxypropyl]amino}meth-yl)-6-(trifluoromethyl)pyridin-2-yl]oxy}piperidin-1-yl)-1-[4-(7H-pyrrolo[2,3-d]pyrimidin-4-yl)-1H-pyrazol-1-yl]cyclobutyl}acetonitrile], on human JAK1, the IC50 was below 10 nM. Further, on human JAK2, the JAK2/JAK1 is listed as above 10.

The compound `N#CC[C@]1(n2cc(-c3ncnc4[nH]ccc34)cn2)C[C@H](N2CCC(Oc3cc(CCO)cc(C(F)(F)F)n3)CC2)C1` [Compound 26, {trans-3-(4-{[4-(2-hydroxyethyl)-6-(trifluoromethyl)pyridin-2-yl]oxy}piperidin-1-yl)-1-[4-(7H-pyrrolo[2,3-d]pyrimidin-4-yl)-1H-pyrazol-1-yl]cyclobutyl}acetonitrile] returned an IC50 against human JAK1 below 10 nM. In addition, on human JAK2, the JAK2/JAK1 was above 10.

As for `N#CCC1(n2cc(-c3ncnc4[nH]ccc34)cn2)CN([C@H]2CC[C@@H](Oc3cc(CN4CC[C@@H](O)C4)cc(C(F)(F)F)n3)CC2)C1` [Compound 21, {1-(cis-4-{[4-{[(3R)-3-hydroxypyrrolidin-1-yl]methyl}-6-(trifluoromethyl)pyridin-2-yl]oxy}cyclohexyl)-3-[4-(7H-pyrrolo[2,3-d]pyrimidin-4-yl)-1H-pyrazol-1-yl]azetidin-3-yl}acetonitrile], the IC50 on human JAK1 was below 10 nM. Moreover, at human JAK2, the JAK2/JAK1 was above 10.

Compound `N#CCC(C1CCN(c2cccc(Cl)n2)C1)n1cc(-c2ncnc3[nH]ccc23)cn1` (single isomer, unassigned) [Compound 6, 3-[1-(6-chloropyridin-2-yl)pyrrolidin-3-yl]-3-[4-(7H-pyrrolo[2,3-d]pyrimidin-4-yl)-1H-pyrazol-1-yl]propanenitrile] yielded an IC50 at human JAK1 below 10 nM. The JAK2/JAK1 on human JAK2 is reported as above 10.

The compound `C[C@H](NC(=O)c1cc(F)c(N2CC(CC#N)(n3cc(-c4ncnc5[nH]ccc45)cn3)C2)cc1F)C(F)(F)F` [Compound 16, 4-{3-(cyanomethyl)-3-[4-(7H-pyrrolo[2,3-d]pyrimidin-4-yl)-1H-pyrazol-1-yl]azetidin-1-yl}-2,5-difluoro-N-[(1S)-2,2,2-trifluoro-1-methylethyl]benzamide] registered an IC50 against human JAK1 below 10 nM. Moreover, the JAK2/JAK1 on human JAK2 is above 10.

With `N#CCC(C1CCN(c2nc3cccnc3o2)C1)n1cc(-c2ncnc3[nH]ccc23)cn1` (stereo not drawn) [Compound 7, 3-(1-[1,3]oxazolo[5,4-b]pyridin-2-ylpyrrolidin-3-yl)-3-[4-(7H-pyrrolo[2,3-d]pyrimidin-4-yl)-1H-pyrazol-1-yl]propanenitrile], the IC50 on human JAK1 is below 10 nM. On human JAK2, the JAK2/JAK1 is above 10.

In turn, `N#CCC1(n2cc(-c3ncnc4[nH]ccc34)cn2)CN(C2CCN(C(=O)c3ccnc(C(F)(F)F)n3)CC2)C1` [Compound 3, [3-[4-(7H-pyrrolo[2,3-d]pyrimidin-4-yl)-1H-pyrazol-1-yl]-1-(1-{[2-(trifluoromethyl)pyrimidin-4-yl]carbonyl}piperidin-4-yl)azetidin-3-yl]acetonitrile] showed an IC50 at human JAK1 below 10 nM. In addition, the JAK2/JAK1 on human JAK2 is given as above 10.

Compound `N#CCC(CN1CCN(C(=O)c2ccc(C#N)cc2F)CC1)n1ccc(-c2ncnc3[nH]ccc23)c1` (stereo not drawn) [Compound 9, 4-[(4-{3-cyano-2-[3-(7H-pyrrolo[2,3-d]pyrimidin-4-yl)-1H-pyrrol-1-yl]propyl}piperazin-1-yl)carbonyl]-3-fluorobenzonitrile] showed an IC50 against human JAK1 below 10 nM. The JAK2/JAK1 at human JAK2 was above 10.

For the compound `N#CC[C@]1(n2cc(-c3ncnc4[nH]ccc34)cn2)C[C@H](N2CCN(C(=O)c3ccnc(C(F)(F)F)n3)CC2)C1` [Compound 10, [trans-1-[4-(7H-pyrrolo[2,3-d]pyrimidin-4-yl)-1H-pyrazol-1-yl]-3-(4-{[2-(trifluoromethyl)pyrimidin-4-yl]carbonyl}piperazin-1-yl)cyclobutyl]acetonitrile], the IC50 against human JAK1 was below 10 nM. Moreover, on human JAK2, the JAK2/JAK1 is reported as above 10.
